SMILES strings stand for the structures.

This assay concerns endothelium-ablated preparations of the rat aorta. The experiment in a line: Vasorelaxing effect to endothelium-ablated preparations of the rat aorta. As to conditions: 10 min; endothelium-ablated rat aorta rings, contraction by 30 mM K^+, 37° C., sample compound cumulatively applied at intervals of 10 minutes; read-out: IC50 (50% inhibition concentration). On the procedure: Vasorelaxing effect to endothelium-ablated preparations of the rat aorta:
The aorta of each rat (body weight: 200 to 330 g) was isolated and cut at a width of about 3 mm. Endothelium was then ablated off to form a ring preparation. That preparation was incubated at 37° C., and then suspended under a load of 2 g in 10 ml of the Krebs-Henseleit solution which had been aerated with a mixed gas (95% O2, 5% CO2). Tension was isometrically recorded via an FD transducer ("T2-30-240", trade name; manufactured by Orientec) and a dynamic strain gauge ("6M81", trade name; manufactured by NEC-San-ei) Upon an elapsed time of 60 minutes or longer subsequent to the suspension, that is, after the preparation had become stable, 10^-7 M noradrenaline (Nor) was applied several times. Under contraction by 10^-7 M Nor, 10^-7 acetylcholine was applied. Preparations which were not relaxed by the application of 10^-7 acetylcholine were used in the experiment. 30 mM K^+ were applied. From the time point that its contraction had became uniform, a sample compound was cumulatively applied at intervals of 10 minutes so that the 50% inhibition concentration (IC50) was calculated.
Turning to `CC1(C)Oc2ccc(C#N)cc2[C@@H](N2CCCC2=O)[C@@H]1O` (racemic) [Cromakalim, (±)-trans-6-cyano-2,2-dimethyl-4-(2-oxopyrrolidin-1-yl)-3,4-dihydro-2H-1-benzopyran-3-ol, reference compound], the IC50 turned out to be 134 nM.

As to `CCC(=O)NN1CC(C)(C)Oc2ccc([N+](=O)[O-])cc21` [Compound No. 8, 2,2-Dimethyl-6-nitro-4-propanoylamino-1,4-benzoxazine], the IC50 came to 12.6 nM.

On to `C=CC(=O)NN1CC(C)(C)Oc2ccc([N+](=O)[O-])cc21` [compound 11], for which the IC50 was found to be 28.8 nM.

`CC1(C)CN(NC(=O)c2cccnc2)c2cc(C(F)(F)F)ccc2O1` [compound 20]: the IC50 stood at 51.4 nM.

As to `CCC1(CC)CN(NC(C)=O)c2cc(C(F)(F)F)ccc2O1` [compound 24], the IC50 worked out at 37.9 nM.

On to `CC(=O)NN1CC(C)(C)Oc2ccc(S(=O)(=O)C(F)(F)C(F)(F)F)cc21` [compound 27], for which the IC50 was 33.6 nM.

For the compound `CC(=O)NN1CC(C)(C)Oc2ccc(S(=O)(=O)C(F)(F)F)cc21` [compound 56], the IC50 came to 9.6 nM.

As to `CCC(=O)NN1CC(C)(C)Oc2ccc(S(=O)(=O)C(F)(F)F)cc21` [compound 57], the IC50 is 15.2 nM.

Consider `CC1(C)CN(NC(=O)c2cccnc2)c2cc(S(=O)(=O)C(F)(F)F)ccc2O1` [compound 58], for which the IC50 was 14.3 nM.

For the origin of these results see patent US5440036A, “1,4-benzoxazine derivatives” (SS Pharmaceutical Co., Ltd., priority 1992, dated 1995).
